Data on eleven compounds can be found in PubChem BioAssay (NCI).

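Each compound was tested at five concentrations against cells in 96-well plates for 48 hours. TGI is the concentration that stops growth completely.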

Among the test systems are SF-268 CNS; NCI-H226 lung; MCF7 breast; HOP-92 NSCLC; PC-3 prostate; HCC-2998 colon; BT-549 breast; OVCAR-3 ovarian; HCT-15 colon; HOP-62 NSCLC; SR leukemia; SF-295 CNS; KM12 colon; SK-MEL-5 melanoma; COLO 205 colon; OVCAR-4 ovarian; SK-OV-3 ovarian; A498 renal; LOX IMVI melanoma; HS 578T breast.
Common to all, as to experiment: growth of human tumour cells (NCI), 48 h

Consider `CCCCCC(=O)Nc1nc[nH]c1C(N)=O`, for which the TGI with SF-268 CNS, with NCI-H226 lung, in the assay with MCF7 breast, in the assay with HOP-92 NSCLC, with PC-3 prostate and in the assay on HCC-2998 colon was greater than 100 µM each time. The TGI in the assay on BT-549 breast, with OVCAR-3 ovarian, with HCT-15 colon, in the assay with HOP-62 NSCLC, in the assay with SR leukemia and in the assay on SF-295 CNS was greater than 100 µM each time. Moreover, the TGI in the assay on KM12 colon, with SK-MEL-5 melanoma, with COLO 205 colon, in the assay with OVCAR-4 ovarian, in the assay with SK-OV-3 ovarian and in the assay with A498 renal was greater than 100 µM in each case. Besides, the TGI in the assay with LOX IMVI melanoma and in the assay on HS 578T breast was greater than 100 µM throughout.

Regarding `O=C(c1ccc2ccccc2c1)N(Cc1cccnc1)C(=S)N(Cc1cccnc1)C(=O)c1ccc2ccccc2c1`, the TGI was 78.5 µM in the assay with SF-268 CNS; greater than 100 µM with NCI-H226 lung; greater than 100 µM with MCF7 breast; 69.7 µM in the assay on HOP-92 NSCLC; greater than 100 µM in the assay on PC-3 prostate; 32 µM in the assay with HCC-2998 colon. For the same compound, the TGI with BT-549 breast was 38.6 µM; in the assay on OVCAR-3 ovarian, 42.7 µM; in the assay with HCT-15 colon it was greater than 100 µM; in the assay with HOP-62 NSCLC it was 55.2 µM; in the assay on SR leukemia, greater than 100 µM; with SF-295 CNS, greater than 100 µM. Further, the TGI with KM12 colon is 40 µM; with SK-MEL-5 melanoma, 41.3 µM; in the assay with COLO 205 colon, 75.1 µM; with OVCAR-4 ovarian, 45.3 µM; with SK-OV-3 ovarian it was greater than 100 µM; in the assay with A498 renal, greater than 100 µM. Also, the TGI in the assay on LOX IMVI melanoma is 37 µM; in the assay on HS 578T breast it was greater than 100 µM.

Regarding `CSCCC(N)P(C)(=O)O` (stereo not given), the TGI with SF-268 CNS, with NCI-H226 lung, with MCF7 breast, in the assay on HOP-92 NSCLC, in the assay on PC-3 prostate and with HCC-2998 colon was greater than 100 µM each time. In addition, the TGI in the assay with BT-549 breast, in the assay with OVCAR-3 ovarian, in the assay on HCT-15 colon, in the assay with HOP-62 NSCLC, in the assay with SR leukemia and in the assay on SF-295 CNS was greater than 100 µM each time. Also, the TGI in the assay on KM12 colon, with SK-MEL-5 melanoma, in the assay on COLO 205 colon, in the assay on OVCAR-4 ovarian, in the assay on SK-OV-3 ovarian and in the assay on A498 renal was greater than 100 µM each time. The TGI in the assay on LOX IMVI melanoma and in the assay on HS 578T breast was greater than 100 µM each time.

In the case of `CCOC(=O)CC1(O)CCCCC1(Sc1ccc(C)cc1)Sc1ccc(C)cc1` (stereo not given), the TGI in the assay with SF-268 CNS, with NCI-H226 lung, in the assay on MCF7 breast, in the assay with HOP-92 NSCLC, with PC-3 prostate and in the assay with HCC-2998 colon was greater than 100 µM in each case. The TGI in the assay with BT-549 breast, in the assay on OVCAR-3 ovarian, in the assay with HCT-15 colon, in the assay with HOP-62 NSCLC, with SR leukemia and in the assay on SF-295 CNS was greater than 100 µM in each case. The TGI with KM12 colon, with SK-MEL-5 melanoma, in the assay with COLO 205 colon, in the assay with OVCAR-4 ovarian, in the assay with SK-OV-3 ovarian and in the assay with A498 renal was greater than 100 µM throughout. Besides, the TGI was greater than 100 µM with LOX IMVI melanoma and 84.4 µM in the assay on HS 578T breast.

With `N/C(=N\N=C\c1c[nH]c2cc(C(F)(F)F)ccc2c1=O)NO`, the TGI in the assay on SF-268 CNS, in the assay on NCI-H226 lung, in the assay on MCF7 breast, with HOP-92 NSCLC, in the assay on PC-3 prostate and in the assay on HCC-2998 colon was greater than 10 µM in each case. Also, the TGI in the assay with BT-549 breast, in the assay on OVCAR-3 ovarian, in the assay on HCT-15 colon, in the assay with HOP-62 NSCLC, in the assay on SR leukemia and in the assay on SF-295 CNS was greater than 10 µM each time. In addition, the TGI in the assay with KM12 colon, in the assay with SK-MEL-5 melanoma, in the assay on COLO 205 colon, with OVCAR-4 ovarian, with SK-OV-3 ovarian and in the assay with A498 renal was greater than 10 µM each time. Also, the TGI in the assay with LOX IMVI melanoma and with HS 578T breast was greater than 10 µM in each case.

Turning to `O=C(O)C1=C(C(=O)O)N(c2ccncc2)C(c2ccco2)=CC1c1ccccc1[N+](=O)[O-]` (stereo not given), the TGI with SF-268 CNS came out at 36.1 µM; in the assay on NCI-H226 lung, 40.2 µM; in the assay on MCF7 breast, 10.1 µM; in the assay with HOP-92 NSCLC, 22.1 µM; in the assay on PC-3 prostate, 27.9 µM; with HCC-2998 colon, 3.57 µM. Also, the TGI in the assay with BT-549 breast came to 30 µM; in the assay with OVCAR-3 ovarian, 23.5 µM; in the assay with HCT-15 colon, 4.25 µM; in the assay with HOP-62 NSCLC it was 33.7 µM; in the assay on SR leukemia, 5.68 µM; in the assay on SF-295 CNS it was 25.5 µM. The TGI in the assay on KM12 colon is 3.36 µM; in the assay on SK-MEL-5 melanoma it was greater than 47.4 µM; in the assay on COLO 205 colon it was 31.1 µM; in the assay on OVCAR-4 ovarian it was 25.9 µM; with SK-OV-3 ovarian, 44.1 µM; with A498 renal it was 28.1 µM. Further, the TGI in the assay with LOX IMVI melanoma was determined as 4.02 µM; in the assay with HS 578T breast it was 62 µM.

Consider `CCOC(=O)[C@H](O)[C@@H](O)C(=O)NCc1ccc(C(=O)c2ccccc2)cc1`, for which the TGI with SF-268 CNS, in the assay on NCI-H226 lung, with MCF7 breast, in the assay on HOP-92 NSCLC, with PC-3 prostate and with HCC-2998 colon was greater than 100 µM throughout. The TGI with BT-549 breast, in the assay on OVCAR-3 ovarian, in the assay on HCT-15 colon, in the assay on HOP-62 NSCLC, in the assay on SR leukemia and in the assay with SF-295 CNS was greater than 100 µM in each case. Besides, the TGI in the assay with KM12 colon, in the assay with SK-MEL-5 melanoma, in the assay on COLO 205 colon, with OVCAR-4 ovarian, in the assay on SK-OV-3 ovarian and with A498 renal was greater than 100 µM in each case. For the same compound, the TGI with LOX IMVI melanoma and with HS 578T breast was greater than 100 µM in each case.

Consider `O=C(CC(C(=O)c1ccco1)c1cccs1)c1cccs1` (stereo not given), for which the TGI with SF-268 CNS, in the assay on NCI-H226 lung, in the assay on MCF7 breast, in the assay with HOP-92 NSCLC, in the assay on PC-3 prostate and with HCC-2998 colon was greater than 100 µM in each case. The TGI with BT-549 breast, with OVCAR-3 ovarian, in the assay on HCT-15 colon, in the assay with HOP-62 NSCLC, in the assay with SR leukemia and in the assay with SF-295 CNS was greater than 100 µM in each case. Further, the TGI in the assay on KM12 colon, with SK-MEL-5 melanoma, in the assay with COLO 205 colon, in the assay on OVCAR-4 ovarian, in the assay on SK-OV-3 ovarian and with A498 renal was greater than 100 µM in each case. Besides, the TGI with LOX IMVI melanoma and in the assay with HS 578T breast was greater than 100 µM in each case.

As to `Cc1cccc2c(N)c3cccc(C(=O)NCC[N+](C)(C)Cc4sccc4[N+](=O)[O-])c3nc12`, the TGI in the assay on SF-268 CNS is greater than 100 µM; in the assay with NCI-H226 lung it was 32 µM; in the assay with MCF7 breast it was 25.2 µM; in the assay with HOP-92 NSCLC, greater than 100 µM; in the assay with PC-3 prostate, 77 µM; in the assay with HCC-2998 colon it was 20.8 µM. Also, the TGI in the assay on BT-549 breast was 66.2 µM; with OVCAR-3 ovarian, greater than 100 µM; with HCT-15 colon, greater than 100 µM; with HOP-62 NSCLC, greater than 100 µM; in the assay with SR leukemia, greater than 100 µM; in the assay with SF-295 CNS it was greater than 100 µM. Also, the TGI in the assay on KM12 colon is 28.2 µM; in the assay on SK-MEL-5 melanoma, greater than 100 µM; with COLO 205 colon, 79.3 µM; with OVCAR-4 ovarian, 35.5 µM; in the assay with SK-OV-3 ovarian, 41.3 µM; in the assay with A498 renal it was greater than 100 µM. For the same compound, the TGI with LOX IMVI melanoma was determined as 61 µM; in the assay with HS 578T breast, 28.3 µM.

With `CCOC(=O)C1=C(C)OC(=O)[C@@]2(OC)C=C(Cl)[C@@]12C`, the TGI with SF-268 CNS, with NCI-H226 lung, in the assay with MCF7 breast, in the assay with HOP-92 NSCLC, in the assay on PC-3 prostate and in the assay on HCC-2998 colon was greater than 100 µM each time. Further, the TGI in the assay on BT-549 breast, in the assay with OVCAR-3 ovarian, with HCT-15 colon, in the assay on HOP-62 NSCLC, with SR leukemia and in the assay on SF-295 CNS was greater than 100 µM in each case. Besides, the TGI in the assay on KM12 colon, with SK-MEL-5 melanoma, with COLO 205 colon, in the assay on OVCAR-4 ovarian, in the assay with SK-OV-3 ovarian and in the assay on A498 renal was greater than 100 µM throughout. Also, the TGI with LOX IMVI melanoma and in the assay on HS 578T breast was greater than 100 µM each time.

Turning to `Cn1cc(-c2cnc(-c3cn(C)c4ccccc34)cn2)c2ccccc21`, the TGI is greater than 87.5 µM in the assay with SF-268 CNS; greater than 86.1 µM in the assay on NCI-H226 lung; greater than 27.1 µM in the assay on MCF7 breast; greater than 100 µM with HOP-92 NSCLC; greater than 100 µM with PC-3 prostate; 41.7 µM in the assay with HCC-2998 colon. The TGI with BT-549 breast is greater than 84.7 µM; in the assay on OVCAR-3 ovarian it was greater than 42.4 µM; with HCT-15 colon it was 47.4 µM; with HOP-62 NSCLC, greater than 100 µM; in the assay with SR leukemia, greater than 100 µM; in the assay with SF-295 CNS, 11.7 µM. Further, the TGI in the assay with KM12 colon is 14.8 µM; in the assay on SK-MEL-5 melanoma, 25.3 µM; in the assay on COLO 205 colon, 15.6 µM; with OVCAR-4 ovarian it was greater than 100 µM; in the assay on SK-OV-3 ovarian, greater than 100 µM; in the assay on A498 renal it was greater than 41.4 µM. Also, the figures for the TGI in the assay with LOX IMVI melanoma and in the assay on HS 578T breast were 35.9 µM and 33.5 µM, respectively.
